Literature values as cited in patent publication US10202620B2, “Synthesis of olefinic alcohols via enzymatic terminal hydroxylation” (PROVIVI, INC., priority 2014, dated 2019).

Experiments:
CYP52A4 = target: T1, CYP52A4 (Candida maltosa, UniProt P16141); details: terminal hydroxylation, by alkane/FA chain length
T1 sequence (P16141 1-538): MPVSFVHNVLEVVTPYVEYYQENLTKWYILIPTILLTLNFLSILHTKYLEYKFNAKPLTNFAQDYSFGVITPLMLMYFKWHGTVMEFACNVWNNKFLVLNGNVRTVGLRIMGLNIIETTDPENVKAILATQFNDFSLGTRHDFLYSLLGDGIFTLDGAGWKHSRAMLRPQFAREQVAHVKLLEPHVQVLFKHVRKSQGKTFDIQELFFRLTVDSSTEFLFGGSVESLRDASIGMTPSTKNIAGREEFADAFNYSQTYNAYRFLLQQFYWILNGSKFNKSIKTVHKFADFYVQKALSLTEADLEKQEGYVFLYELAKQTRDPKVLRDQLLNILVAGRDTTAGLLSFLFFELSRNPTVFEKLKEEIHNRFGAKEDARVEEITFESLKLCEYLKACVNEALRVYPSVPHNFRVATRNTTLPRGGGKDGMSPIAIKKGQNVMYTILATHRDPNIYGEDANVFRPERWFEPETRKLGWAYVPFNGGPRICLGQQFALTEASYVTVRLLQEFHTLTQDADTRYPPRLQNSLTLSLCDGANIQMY

CYP52A3 = details: terminal hydroxylation, by alkane/FA chain length
CYP153A16 = details: terminal hydroxylation, by alkane/FA chain length
CYP153A P. sp. = details: terminal hydroxylation, by alkane/FA chain length
AlkB P. putida GPo1 = target: T2, AlkB P. putida GPo1 (Ectopseudomonas oleovorans, UniProt P12691); details: terminal hydroxylation, by alkane/FA chain length
T2 sequence (P12691 1-401): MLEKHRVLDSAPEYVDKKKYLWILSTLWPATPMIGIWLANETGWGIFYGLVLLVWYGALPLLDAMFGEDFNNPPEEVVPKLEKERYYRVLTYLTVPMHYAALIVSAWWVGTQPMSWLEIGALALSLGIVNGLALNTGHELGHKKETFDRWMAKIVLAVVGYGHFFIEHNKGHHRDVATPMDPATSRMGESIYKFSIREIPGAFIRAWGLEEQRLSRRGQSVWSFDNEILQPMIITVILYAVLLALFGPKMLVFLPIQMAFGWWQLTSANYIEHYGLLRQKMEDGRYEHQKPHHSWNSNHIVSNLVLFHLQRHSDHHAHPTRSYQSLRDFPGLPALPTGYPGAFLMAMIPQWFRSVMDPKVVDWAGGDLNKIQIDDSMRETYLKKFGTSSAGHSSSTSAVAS

alkB2 Gordonia sp TF6 = details: terminal hydroxylation, by alkane/FA chain length; 100% relative activity obtained with hexane
LadA = target: T3, LadA (Geobacillus thermodenitrificans, UniProt A4IU28); details: terminal hydroxylation, by alkane/FA chain length
T3 sequence (A4IU28 1-440): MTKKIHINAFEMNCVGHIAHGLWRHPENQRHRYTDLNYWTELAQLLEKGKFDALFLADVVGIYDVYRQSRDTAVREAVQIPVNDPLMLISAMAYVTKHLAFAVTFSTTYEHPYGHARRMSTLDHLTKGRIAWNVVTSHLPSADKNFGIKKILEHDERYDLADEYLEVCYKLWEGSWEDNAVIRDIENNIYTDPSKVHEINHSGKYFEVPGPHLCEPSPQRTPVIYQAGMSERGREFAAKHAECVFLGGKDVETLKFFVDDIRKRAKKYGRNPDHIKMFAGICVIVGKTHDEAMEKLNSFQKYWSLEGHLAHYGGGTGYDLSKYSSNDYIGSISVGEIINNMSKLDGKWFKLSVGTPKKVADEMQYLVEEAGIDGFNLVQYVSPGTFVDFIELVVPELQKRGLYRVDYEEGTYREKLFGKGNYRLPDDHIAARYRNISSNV

Row | Compound | Relative activity CYP52A4 (Scheller et al., 1996, Arch. Biochem Biophys. 328: 245-254) (CYP52A4) | Relative activity CYP52A3 (Scheller et al., 1996, Arch. Biochem Biophys. 328: 245-254) (CYP52A3) | Relative activity CYP153A16 (Scheps et al., 2011, Org. Biomol. Chem. 9: 6727-6733) (CYP153A16) | Relative activity CYP153A P. sp. (Scheps et al., 2011, Org. Biomol. Chem. 9: 6727-6733) (CYP153A P. sp.) | Relative activity AlkB P. putida GPo1 (Vanbeilen et al., 1994, Enzyme Microb. Technol. 16: 904-911) (AlkB P. putida GPo1) | Relative activity alkB2 Gordonia sp TF6* (Fujii et al., 2004, Biosci. Biotechnol. Biochem. 68: 2171-2177) (alkB2 Gordonia sp TF6) [%] | Relative activity CYP153A6 (Funhoff et al., 2006, J. Bacteriol. 188: 5220-5227) (CYP153A6) | Relative activity LadA (Feng et al., 2007, Proc. Natl. Acad. Sci. U.S.A. 104: 5602-5607) (LadA) | other results
1 | CCCCCCCCCCCCCCCC(=O)O [C16 FA] | 18 | 35 |  |  |  |  |  |  | Relative activity CYP52A21 (Kim et al., 2007, Arch. Biochem. Biophys. 464: 213-220) (CYP52A21): 29
2 | CCCCCCCCCCCCCCCCCC(=O)O [C18 FA] | 1 | 30 |  |  |  |  |  |  | 
3 | CCCCCCCC [Strain C8] |  |  | 100 | 100 | 95 | 72 | 100 |  | 
4 | CCCCCCCCC [Strain C9] |  |  | 29 | 69 | 100 | 63 | 82 |  | 
5 | CCCCCCCCCC [Strain C10] |  |  | 13 | 60 | 60 | 66 | 23 |  | 
6 | CCCCCCCCCCC [Strain C11] |  |  | <8 | <6 | 6 | 48 | 1 |  | 
7 | CCCCCCCCCCCC [Strain C12] | 37 | 41 |  |  |  | 34 |  |  | 
8 | CCCCCCCCCCCCCCC [Strain C15] |  |  |  |  |  |  |  | 83 | 
9 | CCCCCCCCCCCCCCCC [Strain C16] | 33 | 100 |  |  |  |  |  | 100 | 
10 | CCCCCCCCCCCCCCCCCC [Strain C18] | 20 | 48 |  |  |  |  |  | 78 | 
11 | CCCCCCCCCCCCCCCCCCCCCC [Strain C22] |  |  |  |  |  |  |  | 74 | 
12 | CCCCCCCCCCCCCCCCCCCCCCCC [Strain C24] |  |  |  |  |  |  |  | 65 | 
